Test [1] has as its target T1, glucocorticoid receptor (GR) (Homo sapiens, UniProt P04150).
T1 sequence (P04150 1-777): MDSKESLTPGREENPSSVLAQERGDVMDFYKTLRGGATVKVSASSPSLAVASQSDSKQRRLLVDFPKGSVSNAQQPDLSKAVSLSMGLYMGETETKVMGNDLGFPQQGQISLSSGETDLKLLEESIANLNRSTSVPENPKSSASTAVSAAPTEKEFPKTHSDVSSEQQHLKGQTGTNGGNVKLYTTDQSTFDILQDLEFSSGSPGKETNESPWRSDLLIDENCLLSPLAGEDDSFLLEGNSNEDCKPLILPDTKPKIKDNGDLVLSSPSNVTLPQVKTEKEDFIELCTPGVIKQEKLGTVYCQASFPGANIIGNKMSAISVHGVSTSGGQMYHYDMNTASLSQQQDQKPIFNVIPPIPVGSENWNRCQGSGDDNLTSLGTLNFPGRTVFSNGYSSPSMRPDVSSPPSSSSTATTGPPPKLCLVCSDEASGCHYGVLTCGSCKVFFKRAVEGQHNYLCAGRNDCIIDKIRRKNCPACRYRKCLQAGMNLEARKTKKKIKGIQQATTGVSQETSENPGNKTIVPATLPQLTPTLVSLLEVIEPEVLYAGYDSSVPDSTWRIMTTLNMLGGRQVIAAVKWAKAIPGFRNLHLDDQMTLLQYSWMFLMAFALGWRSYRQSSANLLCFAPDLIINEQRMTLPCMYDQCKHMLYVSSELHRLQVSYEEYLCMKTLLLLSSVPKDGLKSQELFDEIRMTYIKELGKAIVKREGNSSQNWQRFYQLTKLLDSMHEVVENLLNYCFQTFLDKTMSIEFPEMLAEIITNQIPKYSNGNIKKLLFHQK
To be noted: cited from earlier work.

Test [2] concerns Arom^hum mice. Nature of the test: Hernia prevention in Arom^hum mice (treatment before hernia formation). The class given is in vivo, mouse. To be noted: for hernia formation / hernia size: male Arom^hum mice, 12-week treatment started at 3-3.5 weeks of age (before hernia formation). From the text:
Our study design is robust, utilizing Arom^hum mice with endpoints examined after treatment with placebo or anti-P4/PGR, and compared to those of WT littermates using 2 different tissue sites: UAM and LAM (normal or weakened/herniated). Inguinal hernia affects predominantly men vs. women (10:1 ratio). Inguinal hernias are unique to male mice and aged men. […] Here, we will focus on the effects of P4/PGR action on skeletal muscle integrity and hernia formation in males, and our work will be carried out in male mice or tissues primarily from men over 50 years of age. We will use mouse or human tissues or primary cells to closely recapitulate in vivo pathology.
The mouse scrotum is connected to the peritoneal cavity with a narrow funicular (or inguinal) canal, with walls composed of LAM tissue. Structurally normal LAM tissue is essential to maintain the tone of this canal and prevent herniation of the bowel.
Experiment 1a1: Does the addition of P4 to E2 treatment accelerate LAM fibrosis and hernia formation in WT mice? […] We hypothesize that this effect is primarily mediated by the E2 induction of PGR expression in LAM fibroblasts. […] If this were true, the addition of pharmacologic quantities of P4 (75 mg/pellet for 12-week release)^73 to E2 (0.3 mg/pellet for 12-week release)^23-25 in WT mice should accelerate this phenotype. […] See Statistical Methods above for sample size calculation. Hernia surface area will be measured using a digital caliper and calculated as previously described (length×width)^19. At the designated endpoints, LAM and UAM (control) from each mouse will be resected, with one-half of the tissue snap-frozen in liquid nitrogen, and the other half fixed in 4% phosphate-buffered paraformaldehyde for histological and IHC analyses (see below). All tissue and serum (for P4/E2 levels) samples will be collected between 10:00 AM and noon to avoid possible variability in daily hormone fluctuations. […] We will continue to complete the rest of the proposed study in this subaim. We will also assess whether and extent of muscle fibrosis and atrophy will be induced in P4+E2-induced large hernias and E2-induced small hernias. […] P4 antagonists show various levels of selectivity for PGR. […] The use of 3 distinct P4/PGR antagonists with different properties will establish the role of PGR in muscle fibrosis and hernia.
(§1) Hernias will be classified as small, medium, or large if the bulging area through muscle tissue is 125-175 mm^2, 175-225 mm^2, or >225 mm^2, respectively. […] We will assess whether muscle fibrosis, atrophy, and hernia are arrested or reversed. […] Hernia size will be measured. After completion of treatment, the mice will be dissected, and LAM, UAM (control), and serum will be collected. A total of 100 mg of tissue (LAM and UAM) will be obtained and frozen for measurement of tissue E2/P4.

In another test the target is T2, aromatase enzyme (Homo sapiens, UniProt P11511).
T2 sequence (P11511 1-503): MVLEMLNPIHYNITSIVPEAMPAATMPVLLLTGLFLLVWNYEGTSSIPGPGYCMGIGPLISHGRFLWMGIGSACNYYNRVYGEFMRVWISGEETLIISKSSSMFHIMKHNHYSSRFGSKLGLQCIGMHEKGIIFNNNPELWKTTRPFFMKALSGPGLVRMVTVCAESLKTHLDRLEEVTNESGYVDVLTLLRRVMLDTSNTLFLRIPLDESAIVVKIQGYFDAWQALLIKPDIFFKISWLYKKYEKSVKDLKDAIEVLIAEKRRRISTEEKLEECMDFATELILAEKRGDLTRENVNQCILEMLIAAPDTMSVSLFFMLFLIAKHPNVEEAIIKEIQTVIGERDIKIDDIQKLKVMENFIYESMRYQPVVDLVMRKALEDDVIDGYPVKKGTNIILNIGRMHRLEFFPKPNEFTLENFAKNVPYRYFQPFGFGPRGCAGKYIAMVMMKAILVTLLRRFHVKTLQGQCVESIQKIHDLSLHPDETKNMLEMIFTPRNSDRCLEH
To be noted: cited from earlier work.

Test [3] deals with Arom^hum mice. Nature of the test: Halting progression of small/medium-sized hernias in Arom^hum mice. The settings on record: 12-week treatment started when small/medium-sized hernias were formed, n=10, vs placebo. Format: in vivo, mouse. Here is the method: The treatment started when small/medium-sized hernias were formed. ****p<0.0001.
as §1, with “E2/P4. Circulating and tissue E2/P4 levels will be measured using LC-MS^2. We will use immunoblotting and IHC to determine PGR expression in LAM and UAM tissues. PGR target gene expression (Greb1, Cyp7b1) will be measured in paraformaldehyde-fixed LAM tissues using RNAScope and IHC. […] We will continue to complete the rest of the proposed study in this subaim. We will also assess whether muscle fibrosis, atrophy, and large hernia are halted.” for “E2/P4.”

This is an account of results in patent publication US20250186461A1, “METHODS AND COMPOSITIONS FOR TREATING AND/OR PREVENTING HERNIAS” (Northwestern University, priority 2023, published 2025).

Entries after “also recorded” stand apart in the source; their conditions may differ.

For `CC(=O)O[C@]1(C(C)=O)CC[C@H]2[C@@H]3CCC4=CC(=O)CCC4=C3[C@@H](c3ccc(N(C)C)cc3)C[C@@]21C` [UPA, Ulipristal acetate], in test [1], the anti-glucocorticoid activity result is “extremely low anti-glucocorticoid activity”. In the test with Arom^hum mice [2] (vs placebo), the “hernia formation / hernia size” value was “prevented hernia formation in Arom^hum mice; also recorded: also prevented hernia formation”. The “inhibition of aromatase enzyme activity” value at aromatase enzyme is reported as “does not inhibit aromatase enzyme activity”. The “progression (growth) of small/medium-sized hernias, hernia area” value in the test with Arom^hum mice [3] was “halted the progression of small/medium-sized hernias in Arom^hum mice; also recorded: halted the growth of small- and medium-size hernias in all treated Arom^hum mice”.

On to `CC#C[C@]1(O)CC[C@H]2[C@@H]3CCC4=CC(=O)CCC4=C3[C@@H](c3ccc(N(C)C)cc3)C[C@@]21C` [RU486, Mifepristone], for which the anti-glucocorticoid activity entry in test [1] is on record as “has anti-glucocorticoid effects”. For the same compound, in the test with Arom^hum mice [2] (Arom^hum mice, placebo or RU486, n=6), the “LAM fibroblast proliferation in vivo (Ki67 IHC staining)” value is listed as “blocked”. Also, the “LAM tissue fibrosis, ECM deposition and myocyte atrophy (Masson's trichrome staining)” value in the test with Arom^hum mice [2] (Arom^hum mice, vs placebo) was “prevents LAM fibrosis, excessive ECM deposition or myocyte atrophy; also recorded: prevented LAM tissue fibrosis and atrophy in all treated Arom^hum mice”. Besides, in the test with Arom^hum mice [2] (Arom^hum mice, vs placebo, n=10), the “PGR-positive fibroblasts in LAM tissue (PGR IHC staining)” value is “much fewer fibroblasts with PGR IHC staining; also recorded: severely reduced numbers of PGR-positive fibroblasts”. For the same compound, the scrotal area entry in the test on Arom^hum mice [2] (RU486-treated Arom^hum mice vs WT littermates) was “slightly larger than that of WT littermates but was maintained within the upper limit of normal with no evidence of herniation”. For the same compound, in the test with Arom^hum mice [2] (vs placebo), the “hernia formation / hernia size” value is “prevented hernia formation in Arom^hum mice; also recorded: strikingly reduced hernia size or entirely prevented hernia development in all Arom^hum mice”. Moreover, the “inhibition of aromatase enzyme activity” value on aromatase enzyme is “does not inhibit aromatase enzyme activity”. For the same compound, in the test on Arom^hum mice [3], the “progression (growth) of small/medium-sized hernias, hernia area” value was “halted the progression of small/medium-sized hernias in Arom^hum mice; also recorded: halted the growth of small- and medium-size hernias in all treated Arom^hum mice”.
